Values of other authors as cited in patent publication US5604233A, “Lactone stable formulation of 7-ethyl camptothecin and methods for uses thereof” (priority 1994, dated 1997).

Tests used:
[1] = test system: L1210 leukemia; settings: 10-100 mg/kg intraperitoneally; cited from earlier work
[2] = Phase I, early 1970's; cited from earlier work
[3] = test system: topoisomerase II; settings: cited from earlier work
[4] = test system: Topoisomerase I purified from human colon carcinoma cells or calf thymus; settings: cited from earlier work
[5] = test system: L1210 cells; settings: cited from earlier work
[6] = cited from earlier work
[7] = pH levels below 7.0; cited from earlier work
[8] = test system: topoisomerase I; settings: cited from earlier work

CC[C@@]1(O)C(=O)OCc2c1cc1n(c2=O)Cc2cc3ccccc3nc2-1 [camptothecin]
T/C (treated/control) ratios relative to ECPT and HECPT [1]: superior | results relative to CPT-11 under the same conditions [1]: inferior | antitumor activity in Phase I trials [2]: antitumor activity | toxicity in Phase I trials [2]: unpredictable myelosuppression and hemorrhagic cystitis | effect on topoisomerase II [3]: no effect | inhibition of purified topoisomerase I [4]: inhibited | protein-free breaks [5]: increase in unexplained protein-free breaks | solubility in water [6]: poorly soluble in water | form predominating [7]: closed form | reversibility of cleavable complex stabilization [8]: readily reversible
